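Each compound was tested at five concentrations against cells in 96-well plates for 48 hours. GI50 = concentration required for 50% inhibition of growth. TGI marks complete inhibition of growth.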
Experiments:
Assay in all cases: NCI tumour cell line growth inhibition, 48 h
[1] = tested on: 786-0 renal
[2] = tested on: A498 renal
[3] = tested on: A549 NSCLC
[4] = tested on: ACHN renal
[5] = tested on: BT-549 breast
[6] = tested on: CAKI-1 renal
[7] = tested on: CCRF-CEM leukemia
[8] = tested on: COLO 205 colon
[9] = tested on: DU-145 prostate
[10] = tested on: EKVX NSCLC
[11] = tested on: HCC-2998 colon
[12] = tested on: HCT-116 colon
[13] = tested on: HCT-15 colon
[14] = tested on: HL-60(TB) leukemia
[15] = tested on: HOP-62 NSCLC
[16] = tested on: HS 578T breast
[17] = tested on: HT29 colon
[18] = tested on: IGROV1 ovarian
[19] = tested on: K-562 leukemia
[20] = tested on: KM12 colon
[21] = tested on: LOX IMVI melanoma
[22] = tested on: M14 melanoma
[23] = tested on: MALME-3M melanoma
[24] = tested on: MCF7 breast
[25] = tested on: MDA-MB-231 breast
[26] = tested on: MDA-MB-435
[27] = tested on: MDA-MB-468 breast
[28] = tested on: MOLT-4 leukemia
[29] = tested on: NCI-H226 lung
[30] = tested on: NCI-H23 lung
[31] = tested on: NCI-H460 lung
[32] = tested on: NCI-H522 lung
[33] = tested on: NCI/ADR-RES ovarian
[34] = tested on: OVCAR-3 ovarian
[35] = tested on: OVCAR-4 ovarian
[36] = tested on: OVCAR-5 ovarian
[37] = tested on: OVCAR-8 ovarian
[38] = tested on: PC-3 prostate
[39] = tested on: RPMI-8226 leukemia
[40] = tested on: RXF 393 renal
[41] = tested on: SF-268 CNS
[42] = tested on: SF-295 CNS
[43] = tested on: SF-539 CNS
[44] = tested on: SK-MEL-2 melanoma
[45] = tested on: SK-MEL-28 melanoma
[46] = tested on: SK-MEL-5 melanoma
[47] = tested on: SK-OV-3 ovarian
[48] = tested on: SN12C renal
[49] = tested on: SNB-19 CNS
[50] = tested on: SR leukemia
[51] = tested on: SW-620 colon
[52] = tested on: TK-10 renal
[53] = tested on: U251 CNS
[54] = tested on: UACC-257 melanoma
[55] = tested on: UACC-62 melanoma
[56] = tested on: UO-31 renal

Compound: COc1cc(OC)cc(-c2cc3ccc(N(C)C)cc3c(=O)[nH]2)c1
- GI50 [1]: 45.1 nM
- TGI [1]: > 63300 nM
- GI50 [2]: > 100000 nM
- TGI [2]: > 100000 nM
- GI50 [3]: 39 nM
- TGI [3]: > 100000 nM
- GI50 [4]: 52.2 nM
- TGI [4]: > 100000 nM
- GI50 [5]: 38 nM
- TGI [5]: > 100000 nM
- GI50 [6]: 14.5 nM
- TGI [6]: > 100000 nM
- GI50 [7]: 39.6 nM
- TGI [7]: > 100000 nM
- GI50 [8]: 22.3 nM
- TGI [8]: 58.3 nM
- GI50 [9]: 45.6 nM
- TGI [9]: > 100000 nM
- GI50 [10]: 58.8 nM
- TGI [10]: > 100000 nM
- GI50 [11]: 25.7 nM
- TGI [11]: > 100000 nM
- GI50 [12]: < 13.5 nM
- TGI [12]: > 100000 nM
- GI50 [13]: < 11.6 nM
- GI50 [14]: < 11 nM
- TGI [14]: 43.4 nM
- GI50 [15]: 38 nM
- TGI [15]: > 100000 nM
- GI50 [16]: 25.2 nM
- TGI [16]: > 100000 nM
- GI50 [17]: 16.4 nM
- TGI [17]: 52.9 nM
- GI50 [18]: 44.6 nM
- TGI [18]: > 100000 nM
- GI50 [19]: < 10 nM
- TGI [19]: > 100000 nM
- GI50 [20]: 31 nM
- TGI [20]: > 100000 nM
- GI50 [21]: 19 nM
- TGI [21]: > 100000 nM
- GI50 [22]: < 10.6 nM
- TGI [22]: > 48200 nM
- GI50 [23]: 24 nM
- TGI [23]: > 100000 nM
- GI50 [24]: 33.1 nM
- TGI [24]: > 100000 nM
- GI50 [25]: 30.3 nM
- TGI [25]: 3600 nM
- GI50 [26]: < 10 nM
- TGI [26]: 14.9 nM
- GI50 [27]: 21.7 nM
- TGI [27]: 69 nM
- GI50 [28]: 25.4 nM
- TGI [28]: > 100000 nM
- GI50 [29]: 219 nM
- TGI [29]: > 100000 nM
- GI50 [30]: 42.6 nM
- TGI [30]: > 100000 nM
- GI50 [31]: 34.1 nM
- TGI [31]: > 100000 nM
- GI50 [32]: < 10 nM
- TGI [32]: 47.3 nM
- GI50 [33]: < 10 nM
- TGI [33]: 33.6 nM
- GI50 [34]: 19.1 nM
- TGI [34]: 37800 nM
- GI50 [35]: 1670 nM
- TGI [35]: > 100000 nM
- GI50 [36]: 35.7 nM
- TGI [36]: > 100000 nM
- GI50 [37]: 29.8 nM
- TGI [37]: 187 nM
- GI50 [38]: 40 nM
- TGI [38]: > 100000 nM
- GI50 [39]: 43.6 nM
- TGI [39]: > 100000 nM
- GI50 [40]: 15.5 nM
- TGI [40]: > 100000 nM
- GI50 [41]: 354 nM
- TGI [41]: > 100000 nM
- GI50 [42]: < 10.6 nM
- GI50 [43]: 11.7 nM
- TGI [43]: 42.6 nM
- GI50 [44]: 25.6 nM
- TGI [44]: > 100000 nM
- GI50 [45]: 42.2 nM
- TGI [45]: > 100000 nM
- GI50 [46]: 17.1 nM
- TGI [46]: 145 nM
- GI50 [47]: 33.5 nM
- TGI [47]: > 100000 nM
- GI50 [48]: 37.2 nM
- TGI [48]: > 100000 nM
- GI50 [49]: 54.2 nM
- TGI [49]: > 100000 nM
- GI50 [50]: < 10 nM
- TGI [50]: > 100000 nM
- GI50 [51]: < 10.6 nM
- TGI [51]: > 100000 nM
- GI50 [52]: > 100000 nM
- TGI [52]: > 100000 nM
- GI50 [53]: 15.1 nM
- TGI [53]: > 47000 nM
- GI50 [54]: > 100000 nM
- TGI [54]: > 100000 nM
- GI50 [55]: < 10 nM
- TGI [55]: > 100000 nM
- GI50 [56]: 52.3 nM
- TGI [56]: > 100000 nM

Reference: PubChem BioAssay (NCI)
